Measured values reported in US6936585B2, “Corticotropin releasing factor 2 receptor agonists” (priority 2002, dated 2005).
Where two headings read alike, the source gives them in different places. Ends that are not written are not given here. Peptide text beside a SMILES is read from it.

Experiments:
CRF2R = biological target: T1, CRF2R (Homo sapiens, UniProt Q13324); assay: CRF2R agonist activation (EC50 / Emax), called comparative CRF binding; assay type: cell-based; conditions: for Emax: read-out: CRF2R Emax
T1 sequence (Q13324 1-411): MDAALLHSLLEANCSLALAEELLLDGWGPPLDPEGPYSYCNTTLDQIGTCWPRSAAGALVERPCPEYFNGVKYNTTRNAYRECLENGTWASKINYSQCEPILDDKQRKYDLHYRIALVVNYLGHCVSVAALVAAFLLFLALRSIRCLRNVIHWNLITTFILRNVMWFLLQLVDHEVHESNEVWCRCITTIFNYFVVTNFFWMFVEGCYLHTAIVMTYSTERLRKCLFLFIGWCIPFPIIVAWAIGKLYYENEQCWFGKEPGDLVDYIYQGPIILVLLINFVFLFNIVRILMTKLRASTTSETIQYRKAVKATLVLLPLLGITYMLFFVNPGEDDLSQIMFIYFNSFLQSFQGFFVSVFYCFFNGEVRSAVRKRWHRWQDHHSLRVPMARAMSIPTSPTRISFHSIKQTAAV
How it was run: (§1)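 Cells expressing human CRF1R or CRF2R are exposed to peptide or vehicle control, and receptor activation is read as cAMP induction, measured in cell lysates or via a CRE-linked reporter gene.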

CRF1R = biological target: T2, CRF1R (Homo sapiens, UniProt P34998); assay: CRF1R agonist activation (EC50 / Emax), called comparative CRF binding; assay type: cell-based; conditions: for Emax: read-out: CRF1R Emax
T2 sequence (P34998 24-415): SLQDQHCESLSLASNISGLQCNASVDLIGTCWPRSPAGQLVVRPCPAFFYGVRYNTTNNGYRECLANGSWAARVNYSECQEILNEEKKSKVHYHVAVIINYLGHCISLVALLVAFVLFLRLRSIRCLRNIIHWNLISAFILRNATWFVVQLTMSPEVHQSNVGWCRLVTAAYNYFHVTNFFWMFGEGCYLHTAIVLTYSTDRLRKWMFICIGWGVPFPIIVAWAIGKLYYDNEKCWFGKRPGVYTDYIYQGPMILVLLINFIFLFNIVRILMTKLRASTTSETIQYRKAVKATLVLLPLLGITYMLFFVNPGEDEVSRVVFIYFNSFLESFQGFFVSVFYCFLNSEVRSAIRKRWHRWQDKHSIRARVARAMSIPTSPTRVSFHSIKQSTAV
How it was run: as §1

Compound | EC50 (CRF2R) | Emax (CRF2R) | EC50 (CRF1R) | Emax (CRF1R) | EC50 (CRF2R; read-out: CRF2R EC50) | EC50 (CRF1R; read-out: CRF1R EC50)
CC[C@H](C)[C@H](NC(=O)[C@H](CCCNC(=N)N)NC(=O)[C@H](C)NC(=O)[C@H](CC(N)=O)NC(=O)[C@H](CCC(N)=O)NC(=O)[C@H](CCC(=O)O)NC(=O)[C@H](C)NC(=O)[C@H](CCCNC(=N)N)NC(=O)[C@H](CCC(=O)O)NC(=O)[C@H](CCCNC(=N)N)NC(=O)[C@H](CCC(N)=O)NC(=O)[C@H](CO)NC(=O)[C@H](CCC(N)=O)NC(=O)[C@@H](NC(=O)[C@H](CCCCN)NC(=O)[C@H](CCC(=O)O)NC(=O)[C@H](CC(C)C)NC(=O)[C@H](CCC(=O)O)NC(=O)[C@H](CC(C)C)NC(=O)[C@H](CC(C)C)NC(=O)[C@@H](NC(=O)[C@H](CCCNC(=N)N)NC(=O)[C@H](CC(C)C)NC(=O)[C@H](CC(C)C)NC(=O)[C@H](Cc1ccccc1)NC(=O)[C@H](CC(C)C)NC(=O)[C@@H]1CCCN1C(=O)[C@@H](NC(=O)[C@H](CC(=O)O)NC(=O)[C@@H](NC(=O)[C@H](CO)NC(=O)[C@H](CC(C)C)NC(=O)[C@H](CO)NC(=O)[C@@H]1CCCN1C(=O)[C@H](CC(N)=O)NC(=O)[C@@H](N)CC(=O)O)[C@@H](C)CC)C(C)C)[C@@H](C)O)[C@@H](C)O)C(=O)N[C@@H](Cc1ccccc1)C(=O)N[C@@H](C)C(=O)N[C@@H](CCCNC(=N)N)C(=O)N[C@H](C(N)=O)C(C)C [compound 385] (H-DNPSLSIDVPLFLLRTLLELEKTQSQRERAEQNARIFARV-NH2; N-terminus assumed) | 0.0103 µM | 100% | ≥ 1 µM | 46% |  | 
CC[C@H](C)[C@H](NC(=O)[C@H](CCC(N)=O)NC(=O)[C@H](C)NC(=O)[C@H](CC(N)=O)NC(=O)[C@H](CCC(N)=O)NC(=O)[C@H](CCC(=O)O)NC(=O)[C@H](C)NC(=O)[C@H](CCCNC(=N)N)NC(=O)[C@H](CCC(=O)O)NC(=O)[C@H](CCCNC(=N)N)NC(=O)[C@H](CCC(N)=O)NC(=O)[C@H](CO)NC(=O)[C@H](CCC(N)=O)NC(=O)[C@@H](NC(=O)[C@H](CCCCN)NC(=O)[C@H](CCC(=O)O)NC(=O)[C@H](CC(C)C)NC(=O)[C@H](CCC(=O)O)NC(=O)[C@H](CC(C)C)NC(=O)[C@H](CC(C)C)NC(=O)[C@@H](NC(=O)[C@H](CCCNC(=N)N)NC(=O)[C@H](CC(C)C)NC(=O)[C@H](CC(C)C)NC(=O)[C@H](CC(C)C)NC(=O)[C@H](CC(C)C)NC(=O)[C@@H]1CCCN1C(=O)[C@H](CC(C)C)NC(=O)[C@H](CC(=O)O)NC(=O)[C@@H](NC(=O)[C@H](CO)NC(=O)[C@H](CC(C)C)NC(=O)[C@H](CO)NC(=O)[C@@H]1CCCN1C(=O)[C@H](CC(N)=O)NC(=O)[C@@H](N)CC(=O)O)[C@@H](C)CC)[C@@H](C)O)[C@@H](C)O)C(=O)N[C@@H](Cc1ccccc1)C(=O)N[C@@H](C)C(=O)N[C@@H](CCC(N)=O)C(=O)N[C@H](C(N)=O)C(C)C [compound 327] (H-DNPSLSIDLPLLLLRTLLELEKTQSQRERAEQNAQIFAQV-NH2; N-terminus assumed) |  | 100% |  | 36.5% |  | 
CC[C@H](C)[C@H](NC(=O)[C@H](C)NC(=O)[C@H](CC(N)=O)NC(=O)[C@H](CCC(N)=O)NC(=O)[C@H](CCC(=O)O)NC(=O)[C@H](C)NC(=O)[C@H](CCCNC(=N)N)NC(=O)[C@H](CCC(=O)O)NC(=O)[C@H](CCCNC(=N)N)NC(=O)[C@H](CCC(N)=O)NC(=O)[C@H](CO)NC(=O)[C@H](CCC(N)=O)NC(=O)[C@@H](NC(=O)[C@H](CCCCN)NC(=O)[C@H](CCC(=O)O)NC(=O)[C@H](CC(C)C)NC(=O)[C@H](CCC(=O)O)NC(=O)[C@H](CC(C)C)NC(=O)[C@H](CC(C)C)NC(=O)[C@@H](NC(=O)[C@H](CCCNC(=N)N)NC(=O)[C@H](CC(C)C)NC(=O)[C@H](CC(C)C)NC(=O)[C@H](CC(C)C)NC(=O)[C@H](CC(C)C)NC(=O)[C@@H]1CCCN1C(=O)[C@H](CC(C)C)NC(=O)[C@H](CC(=O)O)NC(=O)[C@@H](NC(=O)[C@H](CO)NC(=O)[C@H](CC(C)C)NC(=O)[C@H](CO)NC(=O)[C@@H]1CCCN1)[C@@H](C)CC)[C@@H](C)O)[C@@H](C)O)C(=O)N[C@H](C(=O)N[C@@H](Cc1ccccc1)C(=O)N[C@@H](C)C(=O)N[C@@H](CO)C(=O)N[C@H](C(N)=O)C(C)C)[C@@H](C)CC [compound 344] (H-PSLSIDLPLLLLRTLLELEKTQSQRERAEQNAIIFASV-NH2) |  | 94.5% |  | 77.7% |  | 
CC[C@H](C)[C@H](N)C(=O)N[C@H](C(=O)N[C@@H](CC(C)C)C(=O)N[C@@H](CO)C(=O)N[C@@H](CC(C)C)C(=O)N[C@@H](CC(=O)O)C(=O)N[C@H](C(=O)N1CCC[C@H]1C(=O)N[C@H](C(=O)NCC(=O)N[C@@H](CC(C)C)C(=O)N[C@@H](CC(C)C)C(=O)N[C@@H](CCC(N)=O)C(=O)N[C@H](C(=O)N[C@@H](CC(C)C)C(=O)N[C@@H](CC(C)C)C(=O)N[C@@H](CCC(=O)O)C(=O)N[C@@H](CCC(N)=O)C(=O)N[C@@H](C)C(=O)N[C@@H](CCCNC(=N)N)C(=O)N[C@@H](C)C(=O)N[C@@H](CCCNC(=N)N)C(=O)N[C@@H](C)C(=O)N[C@@H](C)C(=O)N[C@@H](CCCNC(=N)N)C(=O)N[C@@H](CCC(=O)O)C(=O)N[C@@H](CCC(N)=O)C(=O)N[C@@H](C)C(=O)N[C@H](C(=O)N[C@H](C(=O)N[C@@H](CCC(N)=O)C(=O)N[C@@H](C)C(=O)N[C@@H](CCCNC(=N)N)C(=O)N[C@H](C(=O)N[C@@H](CC(C)C)C(=O)N[C@@H](C)C(=O)N[C@@H](CCCNC(=N)N)C(=O)N[C@H](C(N)=O)C(C)C)[C@@H](C)CC)[C@@H](C)O)[C@@H](C)O)[C@@H](C)CC)[C@@H](C)CC)C(C)C)C(C)C [compound 9] (H-IVLSLDVPIGLLQILLEQARARAAREQATTQARILARV-NH2) |  | 34% |  | 10% |  | 
SQEPPISLDLPLQLLREVLEMTKADQLAQQAHSNRKLLDIA-NH2 [compound 95] |  | 8.25% |  | 5.55% |  | 
CC[C@H](C)[C@H](N)C(=O)N[C@H](C(=O)N[C@@H](CC(C)C)C(=O)N[C@@H](CO)C(=O)N[C@@H](CC(C)C)C(=O)N[C@@H](CC(=O)O)C(=O)N[C@H](C(=O)N1CCC[C@H]1C(=O)N[C@H](C(=O)NCC(=O)N[C@@H](CC(C)C)C(=O)N[C@@H](CC(C)C)C(=O)N[C@@H](CCC(N)=O)C(=O)N[C@H](C(=O)N[C@@H](CC(C)C)C(=O)N[C@@H](CC(C)C)C(=O)N[C@@H](CCC(=O)O)C(=O)N[C@@H](CCC(N)=O)C(=O)N[C@@H](C)C(=O)N[C@@H](C)C(=O)N[C@@H](CCCNC(=N)N)C(=O)N[C@@H](C)C(=O)N[C@@H](C)C(=O)N[C@@H](CCCNC(=N)N)C(=O)N[C@@H](CCC(=O)O)C(=O)N[C@@H](CCC(N)=O)C(=O)N[C@@H](C)C(=O)N[C@H](C(=O)N[C@H](C(=O)N[C@@H](CC(N)=O)C(=O)N[C@@H](C)C(=O)N[C@@H](CCCNC(=N)N)C(=O)N[C@H](C(=O)N[C@@H](CC(C)C)C(=O)N[C@@H](C)C(=O)N[C@@H](CCCNC(=N)N)C(=O)N[C@H](C(N)=O)C(C)C)[C@@H](C)CC)[C@@H](C)O)[C@@H](C)O)[C@@H](C)CC)[C@@H](C)CC)C(C)C)C(C)C [compound 135] (H-IVLSLDVPIGLLQILLEQAARAAREQATTNARILARV-NH2) |  | 76% |  | 6% |  | 
CC[C@H](C)[C@H](NC(=O)[C@H](CCCNC(=N)N)NC(=O)[C@H](C)NC(=O)[C@H](CC(N)=O)NC(=O)[C@H](CCC(N)=O)NC(=O)[C@H](CCC(=O)O)NC(=O)[C@H](C)NC(=O)[C@H](CCCNC(=N)N)NC(=O)[C@H](CCC(=O)O)NC(=O)[C@H](CCCNC(=N)N)NC(=O)[C@H](CCC(N)=O)NC(=O)[C@H](CO)NC(=O)[C@H](CCC(N)=O)NC(=O)[C@@H](NC(=O)[C@H](CCCCN)NC(=O)[C@H](CCC(=O)O)NC(=O)[C@H](CC(C)C)NC(=O)[C@H](CCC(=O)O)NC(=O)[C@H](CC(C)C)NC(=O)[C@H](CC(C)C)NC(=O)[C@@H](NC(=O)[C@H](CCCNC(=N)N)NC(=O)[C@H](CC(C)C)NC(=O)[C@H](CC(C)C)NC(=O)[C@@H](NC(=O)[C@H](CC(C)C)NC(=O)[C@@H]1CCCN1C(=O)[C@H](CC(C)C)NC(=O)[C@H](CC(=O)O)NC(=O)[C@@H](NC(=O)[C@H](CO)NC(=O)[C@H](CC(C)C)NC(=O)[C@H](CO)NC(=O)[C@@H]1CCCN1C(=O)[C@H](CC(N)=O)NC(=O)[C@@H](N)CC(=O)O)[C@@H](C)CC)[C@@H](C)CC)[C@@H](C)O)[C@@H](C)O)C(=O)N[C@@H](Cc1ccccc1)C(=O)N[C@@H](C)C(=O)N[C@@H](CCCNC(=N)N)C(=O)N[C@H](C(N)=O)C(C)C [compound 335] (H-DNPSLSIDLPLILLRTLLELEKTQSQRERAEQNARIFARV-NH2; N-terminus assumed) |  | 91% |  | 49.5% | 0.028 µM | ≥ 1 µM
SQEIVLSLDVPIGLLREVLEMTKADQLAQQAHSNRKLLDIA-NH2 [compound 152] |  | 19% |  | 4% |  | 
